This note sets out measurements from a melting point compilation (Tetko et al.; mined from patent text by program, amines drawn as free bases though some values may be those of a salt).

The term melting point denotes the temperature, or range, at which the solid turns liquid.

Where only a bound is given, the exact number is not on record here.

For the compound `O=C(NCCOC1CCCCO1)c1cc([N+](=O)[O-])cc([N+](=O)[O-])c1N(CCO)CCBr` (stereo unspecified), the melting point fell in the range of 121 to 123 °C.

In the case of `CC(=O)CNC(=O)Cc1ccccc1`, the melting point was determined as 126 °C.

Compound `O=C(/C=C/c1ccc(F)c(F)c1)N1CCN(C(=O)c2cc(C(F)(F)F)cc(C(F)(F)F)c2)[C@H](Cc2c[nH]c3ccccc23)C1` gave a melting point of 214 to 217 °C.

The compound `O=S(=O)(OCC(F)(F)C(F)F)c1ccc2ccccc2c1` yielded a melting point of 89.6 °C.

On to `C(=Nn1ccnc1)c1ccccc1`, for which the melting point amounted to 115 °C.

`CN(C)C(=O)C1(CCC#N)c2ccccc2-c2ccccc21` came in with a melting point of 109 to 110 °C.

Take `COC(=O)c1ccc(CNC(=O)OCc2ccccc2)cc1O`: the melting point was in the range of 91 to 92 °C.

`CCCCCCCCCCCCCCCCCCOc1cc(OCCOc2ccc3ccccc3c2)cc(C(=O)OCc2ccccc2)c1` came in with a melting point of 62 to 65 °C.

In turn, `CC(C)c1ccc(C(=O)N2CCCCC2)c(NS(=O)(=O)c2cccc3nsnc23)c1` returned a melting point of 125 to 127 °C.

Compound `CCCCCCCCOc1ccc(C(=O)COC(C)=O)cc1` had a melting point of 44 to 45 °C.

`CCOc1ccc(CC(=O)Nc2ccc(S(=O)(=O)Nc3ccccc3C(=O)O)cc2)cc1` came in with a melting point of 241 to 242 °C.

`CC(=O)Nc1ccc(-c2cc(C(=O)c3ccc(S(C)(=O)=O)cc3)sc2N2CCOCC2)cc1` registered a melting point of 177 °C.

For the compound `COC(=O)CCCOc1cc([N+](=O)[O-])c(CBr)cc1OC`, the melting point lay in the range of 68 to 70 °C.

The compound `CCOC(=O)c1cnn(-c2ccc(Cl)cc2Cl)c1C#N` came in with a melting point of 79 to 81 °C.

`CC(C)(C)NC(=O)[C@@H]1CSCN1` returned a melting point of 68 to 71 °C.

Regarding `CC(C)(C)c1cc(C(=O)Nc2ccccc2C(=O)O)cc(C(C)(C)C)c1O`, the melting point is 202 to 203 °C.

Take `CC(=O)CC(=O)NC12CC3CC(CC(C3)C1)C2`: the melting point turned out to be 80 °C.

In the case of `O=C(O)c1cc(OCc2ccccc2)c(C(=O)c2ccc(Cl)cc2)c([N+](=O)[O-])c1`, the melting point was 137 to 138 °C.

Compound `CCCCCCCC1=CC(=O)N(c2ccccc2)C1=CBr` had a melting point of 63 to 65 °C.

`COCCOC1=CC(=O)C(Nc2ncnc3cc(OCCOC)c(OC)cc23)=CC1=O` displayed a melting point of 211 to 212 °C.

For `CCOC(=O)Cc1ccc(NC(=O)N2CCn3c(c(C(N)=O)c(C#N)c3C3CC3)C2)cc1`, the melting point was in the range of 263 to 264 °C.

On to `O=C(Nc1ccccc1)N1CCC(CN2CCc3c([nH]c4ccccc34)C2)CC1`, for which the melting point was in the range of 207 to 209 °C.

`CN(C(CCn1c(=O)cc(C(F)(F)F)[nH]c1=O)C(=O)NO)S(=O)(=O)c1ccc(Oc2ccc(Cl)cc2)cc1` (stereo unspecified) yielded a melting point of 173 to 174 °C.

Compound `Cc1ccc2c(NCc3ccc(NC(=O)C4CCN(Cc5ccccc5)CC4)cc3)nc(N3CCCCCC3)nc2c1` had a melting point of 66 °C.

On to `CN1CCN(C(=O)c2ccc(-n3nc(-c4ccccc4O)nc3-c3ccccc3O)cc2)CC1`, for which the melting point fell in the range of 226 to 229 °C.

As to `COc1cccc(CN2CCc3cc(O)ccc3C2)c1OC`, the melting point lay in the range of 111 to 115 °C.

Regarding `Cc1sc(C(=O)OCc2ccc3c(c2)OCO3)cc1NC(=O)NCc1ccccc1`, the melting point lay in the range of 216 to 217 °C.

`Cc1nn(-c2ccccn2)c2c1C(=NO)CC(C)(C)C2Br` (stereo unspecified) had a melting point of 195 to 196 °C.

With `COc1cc(CCCC2OC(=O)NC2=O)ccc1OCc1coc(CCc2ccccc2)n1` (stereo unspecified), the melting point lay in the range of 122 to 123 °C.

Compound `O=Cc1cccn1-c1ccc2ccc3[nH]c(=O)c(=O)[nH]c3c2c1` had a melting point greater than 250 °C.

For `CN(C)C(=O)CC1(C)OCCc2c1[nH]c1ccccc21` (stereo unspecified), the melting point fell in the range of 149 to 151 °C.

In turn, `CC(c1ccccc1)n1cncc1C(=O)O` (single isomer, unassigned; (-)) gave a melting point of 155 °C.

In turn, `Nc1ccc(CCCCOCCCCCCNCC(O)c2cc(O)cc(O)c2)cc1` (stereo unspecified) showed a melting point of 157 to 159 °C.

`CC1(C(=O)N2C[C@H](Sc3ccc(OCC(F)(F)F)cc3C(F)(F)F)C[C@H]2C(=O)NC2(C#N)CC2)CC1` displayed a melting point of 66 to 76 °C.

On to `CC(O)CN(Oc1ccccc1C1CCCCC1)C1CCCC(C2CNC(=O)N2)C1` (stereo unspecified), for which the melting point was 117 to 120 °C.

For the compound `CN(C)CCNCc1ccc(-c2cc3ncnc(Nc4ccc5[nH]ccc5c4)c3s2)cc1`, the melting point fell in the range of 170 to 183 °C.

For `OCCC(CCS)c1ccncc1` (stereo unspecified), the melting point lay within 50 to 52 °C.

`CC(C)(CO)CCCCC(CCCCC(C)(C)CO)C(C)(C)O`: the melting point lay within 72 to 74 °C.

`O=C1NCCOc2c1sc1ccccc21` yielded a melting point of 244 to 245 °C.

As to `COc1cc2c3c(c1OC)C=NCC3c1ccccc1CC2` (stereo unspecified), the melting point lay within 131 to 132 °C.

As for `COC1=CC2=CCC3C(CCC4(C)C(=O)CC(OC(C)=O)C34)C2(C)CC1` (stereo unspecified), the melting point is 209 °C.

Compound `Cc1ccc(C2CC(N)=NN2c2ccccc2)cc1` (stereo unspecified) came in with a melting point of 165 to 166 °C.

Turning to `CC(C)c1ccc2c(c1)[C@H]1Cc3ccccc3[C@H]1N2` (relative stereo), the melting point was 104 °C.

`O=C(C=C1CCCCC1)C1Cc2c([nH]c3ccccc23)C(c2ccc3c(c2)OCO3)N1` (stereo unspecified) displayed a melting point of 116 to 118 °C.

Turning to `CC(C)c1ccccc1N1/C(=N\N=C/c2ccc(-c3ncn(-c4ccc(OC(F)(F)F)cc4)n3)cc2)SCC1(O)c1ccccc1C(F)(F)F` (stereo unspecified), the melting point is 115 to 118 °C.

`Cc1cc(C#N)ccc1-c1cccc(-c2nc3cc(C#N)ccc3[nH]2)c1` showed a melting point of 247 to 250 °C.

Consider `CCC1(CC)c2cc(Br)ccc2-c2ccc(-c3nc4ccccc4s3)cc21`, for which the melting point lay in the range of 134 to 135 °C.

As to `CN(Cc1ccc(NC(=O)C2=Cc3cc(OCc4ccccc4Cl)ccc3S(=O)(=O)CC2)cc1)C1CCOCC1`, the melting point fell in the range of 205 to 207 °C.

As for `CCC(=O)C1CN(C(c2ccccc2)c2ccccc2)C1`, the melting point lay in the range of 73 to 75 °C.

`N#Cc1ccc(CN2CCC(N3C(=O)Nc4ccccc4C3c3ccccc3)CC2)cc1` (stereo unspecified) gave a melting point of 189 to 192 °C.

For the compound `O=c1[nH]c2cc(Cl)ccc2c(O)c1-n1cccn1`, the melting point is 310 °C.

`NC(=O)c1cc(Cl)c([N+](=O)[O-])cc1[N+](=O)[O-]`: the melting point fell in the range of 201 to 203 °C.

Compound `Cc1ccc(S(=O)(=O)NC(=O)C(C)c2ccc3cc(OCc4ccc5ccccc5n4)ccc3c2)cc1` (stereo unspecified) came in with a melting point of 201 to 205 °C.

Compound `O=C(O)CCC(=O)N[C@@H]1CN2C(=O)N(c3cc(Cl)nc(Cl)c3)C(=O)[C@@]2(Cc2ccc(OC(F)(F)F)cc2)C1` displayed a melting point of 102 °C.

`O=C(O)C(CN1C(=O)CNC1=O)CS(=O)(=O)c1ccc(-c2ccc(Cl)cc2)cc1` (stereo unspecified) returned a melting point of 188 to 190 °C.

`CC1=NOC2C3CC(C12)C1C(=O)OC(=O)C31` (stereo unspecified) yielded a melting point of 194 to 197 °C.

Compound `CC#CCCn1ncc2c(N)c3c(nc21)CN(CCC)C3=O` yielded a melting point of 178 to 180 °C.

`COc1ccc(C2CNC(=O)C2)cc1OCCN1CCN(c2ccccc2)CC1` (stereo unspecified) came in with a melting point of 140 to 141 °C.

`CCCCn1ncc2c1nc(N)n1nc(-c3ccco3)nc21`: the melting point lay within 157 to 158 °C.

`COc1ccc(-c2c3c(cc4ccc5c(c24)OCO5)C(=O)NC3=O)cc1` showed a melting point of 311 to 313 °C.

With `CC(=O)Nc1cccc2c1CCN(C)C2`, the melting point lay in the range of 138 to 139 °C.
